This is an account of results in patent US20120232049A1, “PYRIDINE OR PYRIMIDINE DERIVATIVE HAVING EXCELLENT CELL GROWTH INHIBITION EFFECT AND EXCELLENT ANTI-TUMOR EFFECT ON CELL STRAIN HAVING AMPLIFICATION OF HGFR GENE” (Eisai R&D Management Co., Ltd., priority 2007, published 2012).

A value given as a limit tells only on which side of the number the result lay.

Assay [1] has as its system SNU-1 (human gastric cancer cells). As to the kind of experiment: Proliferation inhibitory effect against human cancer cells, SNU-1. Type of assay: cell-based. Conditions: SNU1, 72 h, c-met non-amplified cell, 3 days, Cell Counting Kit-8. The procedure:
(§1) Six kinds of human cancer cells are suspended in RPMI1640 medium (purchased from Sigma) containing 10% FBS, respectively. The cell suspensions (MKN-45: 1.5×10^4 cells/ml, SNU-5: 5×10^4 cells/ml, EBC-1: 3×10^4 cells/ml, MKN-74: 2.5×10^4 cells/ml, SNU-1: 2.5×10^4 cells/ml, A549: 1.5×10^4 cells/ml) were added to a cell culture 96-well plate (purchased from NUNC, product number: 167008) at 0.1 ml/well, and cultured overnight in a 5% CO2 incubator (37° C.). After the culture, 0.1 ml of a test substance diluted with RPMI1640 medium containing 10% FBS and the culture was continued for 3 days in a 5% CO2 incubator (37° C.). After the culture, 10 μl of Cell Counting Kit-8 (purchased from DOJINDO, product number: 343-07623) was added to each well and the incubation was performed for 0.5 to 3 hours in a 5% CO2 incubator (37° C.). After the incubation, absorbance of each well was measured by a plate reader MTP-500 (Corona Electric Co., Ltd.) with measurement wavelength 450 nm and reference wavelength 660 nm.

For assay [2], the system named is MKN-45 (human gastric cancer cells). As to the kind of experiment: Proliferation inhibitory effect against human cancer cells, MKN-45. Type of assay: cell-based. The note with it: MKN-45, 72 h, c-met amplified cell, 3 days, Cell Counting Kit-8. On the procedure:
as §1

Assay [3] has as its system Human gastric cancer cells (MKN-45). Briefly: Tumor proliferation inhibitory effect against human cancer cells (MKN-45), subcutaneous transplant. Type of assay: in vivo, BALB/c(nu/nu) mice. The note with it: orally twice a day, fifth day. The procedure: Human gastric cancer cells (MKN-45) were suspended in HBSS (purchased from GIBCO BRL). The cell suspension (5×10^7 cells/ml; 0.1 ml) was transplanted to the subcutaneous parts of the right flank of 7-week female BALB/c(nu/nu) mice. When the tumor volume reached 100-200 mm^3, mice were grouped so that the average of the tumor volume was equable in each group, and 0.5% methylcellulose in hydrochloric acid-glucose solution (0.1N hydrochloric acid:5% glucose solution=1:9) or a test substance suspended in dimethylsulfoxide-Tween-glucose solution (dimethylsulfoxide:Tween:5% glucose solution (containing equimolar hydrochloric acid of the test substance)=7:13:80) was orally administered to mice daily twice a day. The tumor volume was measured on the fifth day from the administration of the test substance. The long and short diameters of the tumor were measured with a caliper and the tumor volume was calculated according to the equation: 1/2×long diameter×short diameter×short diameter. The experiment was conducted in a control group (vehicle administered group) of 10 animals as well as in the test substance administered group of 5 animals. Tumor proliferation rate (%) was defined as the ration of the tumor volume of the test substance administered group to the tumor volume of control group and shown in table 9

The subject of assay [4] is MKN-74 (human gastric cancer cells). Briefly: Proliferation inhibitory effect against human cancer cells, MKN-74. Type of assay: cell-based. Conditions: MKN-74, 72 h, c-met non-amplified cell, 3 days, Cell Counting Kit-8. On the procedure: as §1
Assay [5] relates to SNU-5 (human gastric cancer cells). As to the kind of experiment: Proliferation inhibitory effect against human cancer cells, SNU-5. Type of assay: cell-based. Conditions: SNU-5, 72 h, c-met amplified cell, 3 days, Cell Counting Kit-8. On the procedure: as §1
For assay [6], the system named is A549 (human lung cancer cells). Briefly: Proliferation inhibitory effect against human cancer cells, A549. Type of assay: cell-based. Conditions: A549, 72 h, c-met non-amplified cell, 3 days, Cell Counting Kit-8. The procedure:
as §1

In assay [7] the test system is EBC-1 (human lung cancer cells). As to the kind of experiment: Proliferation inhibitory effect against human cancer cells, EBC-1. Conditions: EBC-1, 72 h, c-met amplified cell, 3 days, Cell Counting Kit-8. Type of assay: cell-based. On the procedure: as §1
The mark [8] stands for this setting: 100 mg/kg weight/administration.
Where [9] appears, read: 12.5 mg/kg weight/administration.

Turning to `CN1CCN(C2CCN(C(=O)Nc3cc(Oc4ccc(NC(=O)C5(C(=O)Nc6ccc(F)cc6)CC5)c(F)c4)ccn3)CC2)CC1` [Example 15, N-(2-Fluoro-4-{[2-({[4-(4-methylpiperazin-1-yl)piperidin-1-yl]carbonyl}amino)pyridin-4-yl]oxy}phenyl)-N-(4-fluorophenyl)cyclopropane-1,1-dicarboxamide], the IC50 stood at 4200 nM in assay [1]; 15 nM in assay [2]; 4.3 µM in assay [4]; 6.2 nM in assay [5]; 2600 nM in assay [6]; 17 nM in assay [7]. Besides, the entries for the “tumor proliferation rate(%)” value in assay [3] (30 mg/kg weight/administration) and in assay [3] (setting [8]) were 29.7% and 19.9%, respectively.

`O=C(Nc1cc(Oc2ccc(NC(=O)C3(C(=O)Nc4ccc(F)cc4)CC3)c(F)c2)ccn1)N1CCC1` [Example 61, N-[4-({2-[(Azetidin-1-ylcarbonyl)amino]pyridin-4-yl}oxy)-2-fluorophenyl]-N′-(4-fluorophenyl)cyclopropane-1,1-dicarboxamide]: the IC50 in assay [1] was over 10000 nM; in assay [2] it was 60 nM; in assay [4], 4.2 µM; in assay [5], 38 nM; in assay [6], over 10000 nM; in assay [7] it was 65 nM. Besides, the “tumor proliferation rate(%)” value in assay [3] (setting [9]) came to 35.8%.

Consider `O=C(Nc1cc(Oc2cc(F)c(NC(=O)C3(C(=O)Nc4ccc(F)cc4)CC3)cc2F)ccn1)N1CC(O)C1` [Example 91, N-{2,5-Difluoro-4-[(2-{([3-hydroxyazetidin-1-yl)carbonyl]amino}pyridin-4-yl)oxy]phenyl}-N′-(4-fluorophenyl)cyclopropane-1,1-dicarboxamide], for which the IC50 in assay [1] worked out at 2000 nM; in assay [2], 6 nM; in assay [4], 3 µM; in assay [5], 6 nM; in assay [6] it was 1900 nM; in assay [7], 6.4 nM. Also, the “tumor proliferation rate(%)” value in assay [3] (1 mg/kg weight/administration) is 73.0%; in assay [3] (3 mg/kg weight/administration), 55.5%; in assay [3] (10 mg/kg weight/administration) it was 27.4%; in assay [3] (setting [9]), 22.9%; in assay [3] (30 mg/kg weight/administration), 19.6%; in assay [3] (setting [8]) it was 16.0%.

Consider `CN1CCN(C2CCN(C(=O)Nc3cc(Oc4cc(F)c(NC(=O)C5(C(=O)Nc6ccc(F)cc6)CC5)cc4F)ccn3)CC2)CC1` [Example 92, N-(2,5-Difluoro-4-{[2-({[4-(4-methylpiperazin-1-yl)piperidin-1-yl]carbonyl}amino)pyridin-4-yl]oxy}phenyl)-N′-(4-fluorophenyl)cyclopropane-1,1-dicarboxamide], for which the half-maximal inhibitory concentration (IC50) in assay [1] amounted to 2300 nM; in assay [2] it was 3.8 nM; in assay [4], 2 µM; in assay [5], 1.7 nM; in assay [6] it was 2900 nM; in assay [7], 3.8 nM. Further, the “tumor proliferation rate(%)” value in assay [3] (setting [9]) came out at 27.9%.

As to `CN1CCC(N(C)C(=O)Nc2cc(Oc3cc(F)c(NC(=O)C4(C(=O)Nc5ccc(F)cc5)CC4)cc3F)ccn2)CC1` [Example 94, N-(2,5-Difluoro-4-{[2-({[methyl(1-methylpiperidin-4-yl)amino]carbonyl}amino)pyridin-4-yl]oxy}phenyl)-N′-(4-fluorophenyl)cyclopropane-1,1-dicarboxamide], the IC50 is 1600 nM in assay [1]; 2.3 nM in assay [2]; 1.9 µM in assay [4]; 1.7 nM in assay [5]; 1800 nM in assay [6]; 2.4 nM in assay [7].

On to `O=C(Nc1cc(Oc2cc(F)c(NC(=O)C3(C(=O)Nc4ccc(F)cc4)CC3)cc2F)ccn1)N1CC(CO)C1` [Example 96, N-(2,5-Difluoro-4-{[2-({[3-(hydroxymethyl)azetidin-1-yl]carbonyl}amino)pyridin-4-yl]oxy}phenyl)-N′-(4-fluorophenyl)cyclopropane-1,1-dicarboxamide], for which the IC50 in assay [1] stood at 3600 nM; in assay [2] it was 4.7 nM; in assay [4], 3.3 µM; in assay [5], 4.9 nM; in assay [6], 2000 nM; in assay [7] it was 4.5 nM.
